# Reference: patent US20220396569A1 (Carmot Therapeutics, Inc., priority 2021, published 2022)
# pEC50: −log10 of the molar value.
# Molecular target: T1, human GLP-1 receptor (Homo sapiens, UniProt P43220)
# T1 construct: expressed in transfected cells
# Assay: GLP-1R cAMP Assay (HitHunter cAMP accumulation)
# Assay type: cell-based
# Conditions: cAMP accumulation, CHO cells stably overexpressing human GLP-1 receptor, 30 min treatment; read-out: EC50
# Method: cAMP accumulation was measured in Chinese hamster ovary (CHO) cells stably overexpressing the human GLP-1 receptor using the HitHunter cAMP Assay for Small Molecules Kit (Eurofins). Briefly, cells were grown in Ham's F12 Nutrient Mix with 10% FBS, and lifted with Cell Dissociation Buffer, Enzyme free, PBS based (ThermoFisher). Cells were pelleted, and resuspended in Hank's buffered saline solution with 10 mM HEPES, and 625 μM 3-isobutyl-1-methylxanthine. The anti-cAMP antibody reagent was then added to cells at a 1:2 ratio and 5 μL of mixture was seeded in 384-well small volume white assay plates, at 10,000 cells/well. Cells were then treated with 50 nL compound using an ECHO 550 acoustic dispenser (Labcyte) in a 20-point dose response format in triplicate for 30 min. Cells were then lysed, and detection reagents added according to the manufacturer's protocol. After overnight incubation, luminescence was measured using a Perkin Elmer Envision plate reader. Dose response curves were analyzed using GraphPad Prism 9.0. […]
# T1 sequence (P43220 24-463): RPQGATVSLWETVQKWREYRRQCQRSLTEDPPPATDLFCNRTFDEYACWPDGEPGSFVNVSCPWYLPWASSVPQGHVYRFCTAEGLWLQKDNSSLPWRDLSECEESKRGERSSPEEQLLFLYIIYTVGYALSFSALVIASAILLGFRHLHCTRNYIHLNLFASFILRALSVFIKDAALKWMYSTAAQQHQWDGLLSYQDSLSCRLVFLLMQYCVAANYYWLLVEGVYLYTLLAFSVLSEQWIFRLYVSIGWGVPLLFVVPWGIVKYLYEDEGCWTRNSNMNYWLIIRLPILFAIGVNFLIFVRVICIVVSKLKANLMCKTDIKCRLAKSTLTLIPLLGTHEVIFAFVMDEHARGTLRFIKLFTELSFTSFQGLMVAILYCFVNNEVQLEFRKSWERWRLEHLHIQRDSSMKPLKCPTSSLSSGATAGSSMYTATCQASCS
row,Structure (SMILES),pEC50
1,"CCn1cncc1Cn1c(CN2CCC(c3cccc(Oc4ccccc4)c3)C2)nc2ccc(C(=O)O)cc21 (racemic) [Example 134, 1-((1-Ethyl-1H-imidazol-5-yl)methyl)-2-((3-(3-phenoxyphenyl)pyrrolidin-1-yl)methyl)-1H-benzo[d]imidazole-6-carboxylic acid]",6.30 to 7.30
2,"N#Cc1ccc(OCc2nc([C@@H]3C[C@@H](CF)N(Cc4nc5ccc(C(=O)O)cc5n4C[C@@H]4CCO4)C3)ccc2F)c(F)c1 (single isomer, unassigned) [Compound 526]",6.30 to 7.30
3,"O=C(O)c1ccc2nc(CN3CC[C@H](c4cccc(COc5ccc(Cl)cc5F)c4)C3)n(C[C@@H]3CCO3)c2c1 (single isomer, unassigned) [Example 412]",6.30 to 7.30
4,"CC1(c2ccc(Cl)cn2)Oc2cccc(CC3CN(Cc4nc5ccc(C(=O)O)cc5n4C[C@@H]4CCO4)C3)c2O1 (stereo partly drawn) [Compound 172, 2-[(3-{[2-(5-chloropyridin-2-yl)-2-methyl-2H-1,3-benzodioxol-4-yl]methyl}azetidin-1-yl)methyl]-1-{[(2S)-oxetan-2-yl]methyl}-1H-1,3-benzodiazole-6-carboxylic acid]",< 6.30
5,"O=C(O)c1ccc2nc(CN3CC(Cc4ccnc(COc5ccc(Cl)cc5Cl)c4)C3)n(Cc3ncco3)c2c1 [Compound 181, 2-{[3-({2-[(2,4-dichlorophenoxy)methyl]pyridin-4-yl}methyl)azetidin-1-yl]methyl}-1-[(1,3-oxazol-2-yl)methyl]-1H-1,3-benzodiazole-6-carboxylic acid]",> 7.30
6,"CCn1cncc1Cn1c(CN2CCC(Cc3cccc4c3OC(C)(c3ccc(Cl)cn3)O4)CC2)nc2ccc(C(=O)O)cc21 (stereo not shown) [Compound 184, 2-[(4-{[2-(5-chloropyridin-2-yl)-2-methyl-2H-1,3-benzodioxol-4-yl]methyl}piperidin-1-yl)methyl]-1-[(1-ethyl-1H-imidazol-5-yl)methyl]-1H-1,3-benzodiazole-6-carboxylic acid]",> 7.30
7,"CCn1cncc1Cn1c(CN2CC(Cc3cccc4c3OC(C)(c3ccc(Cl)cn3)O4)C2)nc2ccc(C(=O)O)cc21 (stereo not shown) [Compound 185, 2-[(3-{[2-(5-chloropyridin-2-yl)-2-methyl-2H-1,3-benzodioxol-4-yl]methyl}azetidin-1-yl)methyl]-1-[(1-ethyl-1H-imidazol-5-yl)methyl]-1H-1,3-benzodiazole-6-carboxylic acid]",6.30 to 7.30
8,"O=C(O)c1ccc2nc(CN3CC(=Cc4ccnc(COc5ccc(Cl)cc5Cl)c4)C3)n(C[C@@H]3CCO3)c2c1 [Compound 190, 2-{[3-({2-[(2,4-dichlorophenoxy)methyl]pyridin-4-yl}methylidene)azetidin-1-yl]methyl}-1-{[(2S)-oxetan-2-yl]methyl}-1H-1,3-benzodiazole-6-carboxylic acid]",> 7.30
9,O=C(O)c1ccc2nc(CN3CC(Cc4cnc(COc5ccc(Cl)cc5Cl)o4)C3)n(C[C@@H]3CCO3)c2c1 [Compound 191],> 7.30
10,N#Cc1cc(Cl)ccc1OCc1cccc(OC2CN(Cc3nc4ccc(C(=O)O)cc4n3C[C@@H]3CCO3)C2)c1 [Compound 194],> 7.30
11,O=C(O)c1ccc2nc(CN3CC(=Cc4cccc(COc5ccc(Cl)cc5Cl)c4)C3)n(C[C@@H]3CCO3)c2c1 [Compound 195],> 7.30
12,CCn1cncc1Cn1c(CN2CC(=Cc3cccc(COc4ccc(Cl)cc4Cl)c3)C2)nc2ccc(C(=O)O)cc21 [Compound 196],> 7.30
13,CCn1cncc1Cn1c(CN2CCC(Cc3cccc4c3OC(C)(c3ccc(Cl)cc3F)O4)CC2)nc2ccc(C(=O)O)cc21 (stereo not shown) [Compound 209],> 7.30
14,"CCn1cncc1Cn1c(CN2CC(Oc3cccc(COc4ccc(Cl)cc4Cl)c3)C2)nc2ccc(C(=O)O)cc21 [Compound 210, 2-[(3-{3-[(2,4-dichlorophenoxy)methyl]phenoxy}azetidin-1-yl)methyl]-1-[(1-ethyl-1H-imidazol-5-yl)methyl]-1H-1,3-benzodiazole-6-carboxylic acid]",> 7.30
15,"CCn1cncc1Cn1c(CN2CC(Oc3ccnc(COc4ccc(Cl)cc4C#N)c3)C2)nc2ccc(C(=O)O)cc21 [Compound 211, 2-{[3-({2-[(4-chloro-2-cyanophenoxy)methyl]pyridin-4-yl}oxy)azetidin-1-yl]methyl}-1-[(1-ethyl-1H-imidazol-5-yl)methyl]-1H-1,3-benzodiazole-6-carboxylic acid]",> 7.30
16,"CCn1cncc1Cn1c(CN2CC(Oc3cccc(COc4ccc(Cl)cc4C#N)c3)C2)nc2ccc(C(=O)O)cc21 [Compound 212, 2-[(3-{3-[(4-chloro-2-cyanophenoxy)methyl]phenoxy}azetidin-1-yl)methyl]-1-[(1-ethyl-1H-imidazol-5-yl)methyl]-1H-1,3-benzodiazole-6-carboxylic acid]",> 7.30

# Next, values leading:
row,pEC50,Structure (SMILES)
1,> 7.30,"N#Cc1ccc(OCc2nc(C3C[C@H](CF)N(Cc4nc5ccc(C(=O)O)cc5n4C[C@@H]4CCO4)C3)ccc2F)c(F)c1 (mixture of isomers) [Compound 528, 2-(((2R)-4-(6-((4-Cyano-2-fluorophenoxy)methyl)-5-fluoropyridin-2-yl)-2-(fluoromethyl)pyrrolidin-1-yl)methyl)-1-(((S)-oxetan-2-yl)methyl)-1H-benzo[d]imidazole-6-carboxylic acid]"
2,> 7.30,"N#Cc1ccc(OCc2nc(C34CC3CN(Cc3nc5ccc(C(=O)O)cc5n3C[C@@H]3CCO3)C4)ccc2F)c(F)c1 (mixture of isomers) [Example 522, 2-((1-(6-((4-Cyano-2-fluorophenoxy)methyl)-5-fluoropyridin-2-yl)-3-azabicyclo[3.1.0]hexan-3-yl)methyl)-1-(((S)-oxetan-2-yl)methyl)-1H-benzo[d]imidazole-6-carboxylic acid]"
3,> 7.30,"CCn1cncc1Cn1c(CN2CCC(Cc3cccc4c3O[C@](C)(c3ccc(Cl)cc3F)O4)CC2)nc2ccc(C(=O)O)cc21 (single isomer, unassigned) [Compound 222]"
4,> 7.30,"CCn1cncc1Cn1c(CN2CCC(Cc3cccc4c3O[C@@](C)(c3ccc(Cl)cc3F)O4)CC2)nc2ccc(C(=O)O)cc21 (single isomer, unassigned) [Compound 223]"
5,> 7.30,"O=C(O)c1ccc2nc(CN3CC[C@@H](c4ccc(F)c(COc5ccc(Cl)cc5F)n4)C3)n(C[C@@H]3CCO3)c2c1 (single isomer, unassigned) [Compound 516]"
6,> 7.30,"O=C(O)c1ccc2nc(CN3CC[C@H](c4ccc(F)c(COc5ccc(Cl)cc5F)n4)C3)n(C[C@@H]3CCO3)c2c1 (single isomer, unassigned) [Compound 517]"
7,> 7.30,"N#Cc1ccc(OCc2nc([C@@H]3CCN(Cc4nc5ccc(C(=O)O)cc5n4C[C@@H]4CCO4)C3)ccc2F)c(F)c1 (single isomer, unassigned) [Compound 518]"
8,> 7.30,"N#Cc1ccc(OCc2nc([C@H]3CCN(Cc4nc5ccc(C(=O)O)cc5n4C[C@@H]4CCO4)C3)ccc2F)c(F)c1 (single isomer, unassigned) [Compound 519]"
9,> 7.30,"N#Cc1ccc(OCc2nc([C@@H]3C[C@@H](CF)N(Cc4nc5ccc(C(=O)O)cc5n4C[C@@H]4CCO4)C3)ccc2F)c(F)c1 (single isomer, unassigned) [Compound 527]"
10,> 7.30,"O=C(O)c1ccc2nc(CN3CC[C@@H](c4cccc(COc5ccc(Cl)cc5Cl)c4)C3)n(C[C@@H]3CCO3)c2c1 (single isomer, unassigned) [Example 405]"
11,> 7.30,"O=C(O)c1ccc2nc(CN3CC[C@H](c4cccc(COc5ccc(Cl)cc5Cl)c4)C3)n(C[C@@H]3CCO3)c2c1 (single isomer, unassigned) [Example 406]"
12,> 7.30,"O=C(O)c1ccc2nc(CN3CC[C@@H](c4cccc(COc5ccc(Cl)cc5F)c4)C3)n(C[C@@H]3CCO3)c2c1 (single isomer, unassigned) [Example 411]"
13,> 7.30,"O=C(O)c1cc(F)c2nc(CN3CC[C@H](c4ccnc(COc5ccc(Cl)cc5F)c4)C3)n(C[C@@H]3CCO3)c2c1 (single isomer, unassigned) [Example 427]"
14,> 7.30,"N#Cc1ccc(OCc2cc([C@H]3CCN(Cc4nc5c(F)cc(C(=O)O)cc5n4C[C@@H]4CCO4)C3)ccc2F)c(F)c1 (single isomer, unassigned) [Example 449]"
15,> 7.30,"CCn1cncc1Cn1c(CN2CC(Cc3cnc(COc4ccc(Cl)cc4C#N)o3)C2)nc2ccc(C(=O)O)cc21 [Compound 167, 2-{[3-({2-[(4-chloro-2-cyanophenoxy)methyl]-1,3-oxazol-5-yl}methyl)azetidin-1-yl]methyl}-1-[(1-ethyl-1H-imidazol-5-yl)methyl]-1H-1,3-benzodiazole-6-carboxylic acid]"
16,> 7.30,"CCn1cncc1Cn1c(CN2CC(=Cc3ccnc(COc4ccc(Cl)cc4Cl)c3)C2)nc2ccc(C(=O)O)cc21 [Compound 175, 2-{[3-({2-[(2,4-dichlorophenoxy)methyl]pyridin-4-yl}methylidene)azetidin-1-yl]methyl}-1-[(1-ethyl-1H-imidazol-5-yl)methyl]-1H-1,3-benzodiazole-6-carboxylic acid]"
17,> 7.30,"CCn1cncc1Cn1c(CN2CC(Cc3ccnc(COc4ccc(Cl)cc4Cl)c3)C2)nc2ccc(C(=O)O)cc21 [Compound 176, 2-{[3-({2-[(2,4-dichlorophenoxy)methyl]pyridin-4-yl}methyl)azetidin-1-yl]methyl}-1-[(1-ethyl-1H-imidazol-5-yl)methyl]-1H-1,3-benzodiazole-6-carboxylic acid]"
18,> 7.30,O=C(O)c1ccc2nc(CN3CC(Cc4ccnc(COc5ccc(Cl)cc5Cl)c4)C3)n(C[C@H]3CCOC3)c2c1 [Compound 180]
